# Source: the kinase profiling compilation of Christmann-Franck et al. (2016)
# Where “and” joins values, the source holds several entries; their conditions need not be identical. Equal values may be shown once.
# Key:
# Experiment in all cases: radiometric filter-binding kinase assay, Kinase HotSpot
# Details in all cases: compound 0.5 µM; ATP 10 µM
# AXL (human) = AXL (human) (UniProt P30530)
# DMPK (human) = DMPK (human) (UniProt Q09013)
# RPS6KA3 KD1 KD2 (human) = RPS6KA3 KD1 KD2 (human) (UniProt P51812)
# Chain of RPS6KA3 KD1 KD2 (human) (P51812 whole entry, looked up): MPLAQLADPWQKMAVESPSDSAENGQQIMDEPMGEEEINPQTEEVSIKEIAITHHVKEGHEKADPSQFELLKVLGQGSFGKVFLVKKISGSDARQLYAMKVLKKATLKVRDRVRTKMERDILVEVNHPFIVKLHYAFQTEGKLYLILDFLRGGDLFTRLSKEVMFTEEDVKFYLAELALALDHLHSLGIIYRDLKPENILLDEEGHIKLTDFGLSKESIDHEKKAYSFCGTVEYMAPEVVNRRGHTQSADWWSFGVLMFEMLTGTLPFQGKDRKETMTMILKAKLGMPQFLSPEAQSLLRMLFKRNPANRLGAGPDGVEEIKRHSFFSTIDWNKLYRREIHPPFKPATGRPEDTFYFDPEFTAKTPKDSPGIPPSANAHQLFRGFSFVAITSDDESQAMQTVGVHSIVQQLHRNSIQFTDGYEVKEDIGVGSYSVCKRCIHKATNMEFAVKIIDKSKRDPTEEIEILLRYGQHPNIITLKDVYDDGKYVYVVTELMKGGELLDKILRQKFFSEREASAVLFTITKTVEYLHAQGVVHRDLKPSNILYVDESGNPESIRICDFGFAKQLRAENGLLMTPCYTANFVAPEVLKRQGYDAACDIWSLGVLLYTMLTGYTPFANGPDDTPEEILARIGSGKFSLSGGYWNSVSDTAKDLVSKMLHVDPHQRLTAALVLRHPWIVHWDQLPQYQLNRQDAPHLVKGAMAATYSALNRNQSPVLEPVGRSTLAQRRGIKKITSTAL
# DYRK4 (human) = DYRK4 (human) (UniProt Q9NR20)
# MAP2K1 (human) = MAP2K1 (human) (UniProt Q02750)
# Chain of MAP2K1 (human) (Q02750 whole entry, looked up): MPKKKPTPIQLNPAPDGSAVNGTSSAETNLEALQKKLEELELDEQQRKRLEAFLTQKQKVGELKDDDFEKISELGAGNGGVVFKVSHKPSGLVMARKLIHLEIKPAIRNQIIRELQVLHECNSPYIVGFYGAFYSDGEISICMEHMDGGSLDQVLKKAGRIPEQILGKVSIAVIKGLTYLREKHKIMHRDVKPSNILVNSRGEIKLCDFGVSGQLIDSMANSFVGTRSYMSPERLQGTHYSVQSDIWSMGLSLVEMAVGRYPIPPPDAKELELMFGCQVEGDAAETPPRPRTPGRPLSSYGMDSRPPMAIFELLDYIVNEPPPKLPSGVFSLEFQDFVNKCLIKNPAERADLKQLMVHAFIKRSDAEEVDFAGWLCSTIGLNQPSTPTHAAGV
# BMX (human) = BMX (human) (UniProt P51813)
# Chain of BMX (human) (P51813 whole entry, looked up): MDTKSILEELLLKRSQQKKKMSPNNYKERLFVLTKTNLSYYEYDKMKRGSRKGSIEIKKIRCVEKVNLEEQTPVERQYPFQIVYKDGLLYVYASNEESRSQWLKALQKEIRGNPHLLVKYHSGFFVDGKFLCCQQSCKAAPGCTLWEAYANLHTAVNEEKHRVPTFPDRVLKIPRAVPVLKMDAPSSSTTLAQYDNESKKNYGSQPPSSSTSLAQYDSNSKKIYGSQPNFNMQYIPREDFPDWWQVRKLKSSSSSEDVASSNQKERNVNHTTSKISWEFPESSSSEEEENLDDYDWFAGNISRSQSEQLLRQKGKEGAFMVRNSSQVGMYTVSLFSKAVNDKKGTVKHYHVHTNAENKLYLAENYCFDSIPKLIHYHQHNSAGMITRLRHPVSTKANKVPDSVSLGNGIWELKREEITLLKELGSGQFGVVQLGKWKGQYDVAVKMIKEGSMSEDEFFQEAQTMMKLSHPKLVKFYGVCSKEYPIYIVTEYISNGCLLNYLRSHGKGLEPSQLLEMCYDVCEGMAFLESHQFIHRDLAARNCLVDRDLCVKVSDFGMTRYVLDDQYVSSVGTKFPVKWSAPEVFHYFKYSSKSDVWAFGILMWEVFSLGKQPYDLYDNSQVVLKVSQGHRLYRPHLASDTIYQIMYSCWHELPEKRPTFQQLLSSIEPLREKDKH
# LIMK1 (human) = LIMK1 (human) (UniProt P53667)
# MAP2K2 (human) = MAP2K2 (human) (UniProt P36507)
# CDK5 CDK5R1 p25 (human) = CDK5 CDK5R1 p25 (human) (UniProt Q00535+Q15078)
# NLK (human) = NLK (human) (UniProt Q9UBE8)
# GSG2 (human) = GSG2 (human) (UniProt Q8TF76)
# DAPK3 (human) = DAPK3 (human) (UniProt O43293)
# CAMKK1 (human) = CAMKK1 (human) (UniProt Q8N5S9)
# PHKG2 (human) = PHKG2 (human) (UniProt P15735)
# MAPKAPK3 (human) = MAPKAPK3 (human) (UniProt Q16644)
# FLT3 (human) = FLT3 (human) (UniProt P36888)
# PRKD3 (human) = PRKD3 (human) (UniProt O94806)
# MARK3 (human) = MARK3 (human) (UniProt P27448)
# BRSK1 (human) = BRSK1 (human) (UniProt Q8TDC3)
# AKT3 (human) = AKT3 (human) (UniProt Q9Y243)
# LYN (human) = LYN (human) (UniProt P07948)
# Chain of LYN (human) (P07948 whole entry, looked up): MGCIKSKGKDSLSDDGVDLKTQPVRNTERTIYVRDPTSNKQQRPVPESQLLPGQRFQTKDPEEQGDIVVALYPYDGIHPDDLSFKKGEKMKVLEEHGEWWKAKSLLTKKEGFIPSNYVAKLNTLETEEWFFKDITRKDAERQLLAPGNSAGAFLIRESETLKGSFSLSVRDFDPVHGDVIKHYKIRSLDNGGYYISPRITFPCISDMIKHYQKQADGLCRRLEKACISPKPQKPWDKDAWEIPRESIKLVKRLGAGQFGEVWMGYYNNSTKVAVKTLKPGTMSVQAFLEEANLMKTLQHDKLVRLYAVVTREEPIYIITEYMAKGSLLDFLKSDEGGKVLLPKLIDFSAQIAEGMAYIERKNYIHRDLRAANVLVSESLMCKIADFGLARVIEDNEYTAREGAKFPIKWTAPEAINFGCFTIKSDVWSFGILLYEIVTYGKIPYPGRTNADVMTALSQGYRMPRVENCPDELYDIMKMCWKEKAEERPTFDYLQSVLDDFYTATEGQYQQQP
# EPHA4 (human) = EPHA4 (human) (UniProt P54764)
# Chain of EPHA4 (human) (P54764 whole entry, looked up): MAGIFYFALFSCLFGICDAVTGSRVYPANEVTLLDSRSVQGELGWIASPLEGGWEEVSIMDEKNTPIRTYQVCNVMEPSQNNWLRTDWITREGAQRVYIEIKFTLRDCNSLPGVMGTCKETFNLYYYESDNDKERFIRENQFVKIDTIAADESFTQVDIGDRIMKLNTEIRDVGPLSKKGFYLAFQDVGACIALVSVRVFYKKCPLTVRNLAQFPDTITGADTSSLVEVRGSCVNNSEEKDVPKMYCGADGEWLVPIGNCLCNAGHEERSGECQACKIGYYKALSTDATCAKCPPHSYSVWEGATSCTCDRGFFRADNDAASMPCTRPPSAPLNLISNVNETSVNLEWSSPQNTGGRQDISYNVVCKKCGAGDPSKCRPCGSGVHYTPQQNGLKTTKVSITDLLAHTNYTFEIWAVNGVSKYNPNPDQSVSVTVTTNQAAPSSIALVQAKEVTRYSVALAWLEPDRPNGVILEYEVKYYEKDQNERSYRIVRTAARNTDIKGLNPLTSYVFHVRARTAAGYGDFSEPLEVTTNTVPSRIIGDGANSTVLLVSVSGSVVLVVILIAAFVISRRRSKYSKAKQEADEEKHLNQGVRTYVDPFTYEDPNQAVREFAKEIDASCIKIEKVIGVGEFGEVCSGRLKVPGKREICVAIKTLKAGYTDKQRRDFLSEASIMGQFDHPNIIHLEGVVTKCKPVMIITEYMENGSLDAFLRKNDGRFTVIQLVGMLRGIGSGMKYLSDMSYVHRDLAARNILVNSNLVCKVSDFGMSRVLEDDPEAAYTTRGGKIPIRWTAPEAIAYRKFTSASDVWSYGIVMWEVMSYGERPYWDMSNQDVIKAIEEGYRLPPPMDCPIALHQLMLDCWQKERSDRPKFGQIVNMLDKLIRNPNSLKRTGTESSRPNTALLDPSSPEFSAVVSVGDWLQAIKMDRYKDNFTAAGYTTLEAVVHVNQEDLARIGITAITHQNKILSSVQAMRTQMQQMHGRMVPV
# YES1 (human) = YES1 (human) (UniProt P07947)
# Chain of YES1 (human) (P07947 whole entry, looked up): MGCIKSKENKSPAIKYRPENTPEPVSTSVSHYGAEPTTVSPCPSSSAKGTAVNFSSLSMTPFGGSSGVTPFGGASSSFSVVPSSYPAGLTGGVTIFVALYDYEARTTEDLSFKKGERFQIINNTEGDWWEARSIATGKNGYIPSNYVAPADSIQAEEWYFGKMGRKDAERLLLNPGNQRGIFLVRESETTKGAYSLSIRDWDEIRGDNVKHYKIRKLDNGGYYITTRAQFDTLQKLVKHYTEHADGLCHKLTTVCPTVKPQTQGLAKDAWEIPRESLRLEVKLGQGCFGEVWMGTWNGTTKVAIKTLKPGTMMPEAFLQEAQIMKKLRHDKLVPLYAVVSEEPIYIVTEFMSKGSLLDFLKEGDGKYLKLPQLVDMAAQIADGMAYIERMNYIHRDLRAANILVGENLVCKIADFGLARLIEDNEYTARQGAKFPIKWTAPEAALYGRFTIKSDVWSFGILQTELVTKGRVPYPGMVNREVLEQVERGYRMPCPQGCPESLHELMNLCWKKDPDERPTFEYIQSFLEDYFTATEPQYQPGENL
# ACVR1B (human) = ACVR1B (human) (UniProt P36896)
# CSF1R (human) = CSF1R (human) (UniProt P07333)
# LCK (human) = LCK (human) (UniProt P06239)
# CDK1 CCNB1 (human) = CDK1 CCNB1 (human) (UniProt P06493+P14635)
# MYLK2 (human) = MYLK2 (human) (UniProt Q9H1R3)
# Chain of MYLK2 (human) (Q9H1R3 whole entry, looked up): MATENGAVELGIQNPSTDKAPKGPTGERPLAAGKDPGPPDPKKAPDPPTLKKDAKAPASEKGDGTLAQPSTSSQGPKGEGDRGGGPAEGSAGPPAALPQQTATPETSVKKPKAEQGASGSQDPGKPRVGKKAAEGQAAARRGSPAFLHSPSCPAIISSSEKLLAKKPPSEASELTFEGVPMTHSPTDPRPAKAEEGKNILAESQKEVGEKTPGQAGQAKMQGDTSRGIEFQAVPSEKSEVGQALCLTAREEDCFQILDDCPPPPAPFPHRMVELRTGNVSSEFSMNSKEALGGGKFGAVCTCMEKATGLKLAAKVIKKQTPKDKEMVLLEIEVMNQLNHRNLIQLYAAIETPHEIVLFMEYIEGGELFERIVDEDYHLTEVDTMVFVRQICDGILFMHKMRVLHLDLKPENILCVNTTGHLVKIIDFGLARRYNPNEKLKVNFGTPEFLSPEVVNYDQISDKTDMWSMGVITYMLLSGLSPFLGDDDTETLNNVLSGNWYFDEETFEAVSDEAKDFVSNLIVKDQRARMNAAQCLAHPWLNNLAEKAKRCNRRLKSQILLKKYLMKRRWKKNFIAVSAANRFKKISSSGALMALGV
# PIM3 (human) = PIM3 (human) (UniProt Q86V86)
# PBK (human) = PBK (human) (UniProt Q96KB5)
# MAPK13 (human) = MAPK13 (human) (UniProt O15264)
# MAP3K9 (human) = MAP3K9 (human) (UniProt P80192)
# STK24 (human) = STK24 (human) (UniProt Q9Y6E0)
# ADRBK2 (human) = ADRBK2 (human) (UniProt P35626)
# INSR (human) = INSR (human) (UniProt P06213)
# EPHB2 (human) = EPHB2 (human) (UniProt P29323)
# PRKD1 (human) = PRKD1 (human) (UniProt Q15139)
# ULK2 (human) = ULK2 (human) (UniProt Q8IYT8)
# EPHB1 (human) = EPHB1 (human) (UniProt P54762)
# RPS6KA5 KD2 (human) = RPS6KA5 KD2 (human) (UniProt O75582)
# LRRK2 (human) = LRRK2 (human) (UniProt Q5S007)
# PAK7 (human) = PAK7 (human) (UniProt Q9P286)
smiles,measurement,setting,value
O=C1Nc2ccccc2/C1=C\c1c(Cl)[nH]c2ccccc12,residual activity,AXL (human),97.8%
same,residual activity,DMPK (human),101%
same,residual activity,RPS6KA3 KD1 KD2 (human),82.9%
same,residual activity,DYRK4 (human),97.4%
same,residual activity,MAP2K1 (human),84.8%
same,residual activity,BMX (human),99.8%
same,residual activity,LIMK1 (human),109%
same,residual activity,MAP2K2 (human),98.7%
same,residual activity,CDK5 CDK5R1 p25 (human),86%
same,residual activity,NLK (human),107%
same,residual activity,GSG2 (human),91%
same,residual activity,DAPK3 (human),91.2%
same,residual activity,CAMKK1 (human),116%
same,residual activity,PHKG2 (human),84.2%
same,residual activity,MAPKAPK3 (human),91.3%
same,residual activity,FLT3 (human),80.5%
same,residual activity,PRKD3 (human),87.7%
same,residual activity,MARK3 (human),104%
same,residual activity,BRSK1 (human),91.9%
same,residual activity,AKT3 (human),93.6%
same,residual activity,LYN (human),93.6% and 99.7%
same,residual activity,EPHA4 (human),93.4%
same,residual activity,YES1 (human),93.9%
same,residual activity,ACVR1B (human),105%
same,residual activity,CSF1R (human),97.2%
same,residual activity,LCK (human),95.5%
same,residual activity,CDK1 CCNB1 (human),94.3%
same,residual activity,MYLK2 (human),94.6%
same,residual activity,PIM3 (human),100%
same,residual activity,PBK (human),102%
same,residual activity,MAPK13 (human),98.9%
same,residual activity,MAP3K9 (human),97.9%
same,residual activity,STK24 (human),81.5%
same,residual activity,ADRBK2 (human),90.1%
same,residual activity,INSR (human),91.2%
same,residual activity,EPHB2 (human),94.2%
same,residual activity,PRKD1 (human),89.5%
same,residual activity,ULK2 (human),99.7%
same,residual activity,EPHB1 (human),90.8%
same,residual activity,RPS6KA5 KD2 (human),85.5%
same,residual activity,LRRK2 (human),102%
O=C(NC(NC(=S)Nc1ccc(F)c([N+](=O)[O-])c1)C(Cl)(Cl)Cl)C(c1ccccc1)c1ccccc1 (configuration not stated),residual activity,AXL (human),112%
same,residual activity,DMPK (human),85.5%
same,residual activity,RPS6KA3 KD1 KD2 (human),96.2%
same,residual activity,DYRK4 (human),104%
same,residual activity,MAP2K1 (human),95.1%
same,residual activity,BMX (human),102%
same,residual activity,LIMK1 (human),94.5%
same,residual activity,MAP2K2 (human),82.3%
same,residual activity,CDK5 CDK5R1 p25 (human),96.8%
same,residual activity,NLK (human),106%
same,residual activity,GSG2 (human),109%
same,residual activity,DAPK3 (human),103%
same,residual activity,CAMKK1 (human),128%
same,residual activity,PHKG2 (human),109%
same,residual activity,MAPKAPK3 (human),106%
same,residual activity,FLT3 (human),99.3%
same,residual activity,PRKD3 (human),98.5%
same,residual activity,MARK3 (human),104%
same,residual activity,BRSK1 (human),98.3%
same,residual activity,AKT3 (human),106%
same,residual activity,LYN (human),103% and 116%
same,residual activity,EPHA4 (human),101%
same,residual activity,YES1 (human),94.6%
same,residual activity,ACVR1B (human),106%
same,residual activity,CSF1R (human),96.2%
same,residual activity,LCK (human),91.8%
same,residual activity,CDK1 CCNB1 (human),92.1%
same,residual activity,PAK7 (human),104%
same,residual activity,MYLK2 (human),104%
same,residual activity,PIM3 (human),120%
same,residual activity,PBK (human),116%
same,residual activity,MAPK13 (human),107%
same,residual activity,MAP3K9 (human),94%
same,residual activity,STK24 (human),92.8%
same,residual activity,ADRBK2 (human),98.3%
same,residual activity,INSR (human),100%
same,residual activity,EPHB2 (human),101%
same,residual activity,PRKD1 (human),96.9%
same,residual activity,EPHB1 (human),109%
same,residual activity,RPS6KA5 KD2 (human),113%
same,residual activity,LRRK2 (human),99.3%
